We go through 10 compounds from patent US20240316022A1 (TYRA BIOSCIENCES, INC., priority 2021, published 2024).

Assay in all cases: Kinase binding assay (kinase-tagged T7 phage, qPCR), Kd
The target of one assay is T1, FGFR4 (Homo sapiens, UniProt P22455).
T1 construct: made in house; host or cells: E. coli derived from BL21, infected with T7 phage
Particulars: read-out: FGFR4 (Kd nM). The method, then:
(§1) Kinase-tagged T7 phage strains were prepared in an E. coli host derived from the BL21 strain. E. coli were grown to log-phase and infected with T7 phage and incubated with shaking at 32° C. until lysis. The lysates were centrifuged and filtered to remove cell debris. Streptavidin-coated magnetic beads were treated with biotinylated small molecule ligands for 30 minutes at room temperature to generate affinity resins for kinase assays. The liganded beads were blocked with excess biotin and washed with blocking buffer SeaBlock (Pierce), 1% BSA, 0.05% Tween 20, 1 mM DTT to remove unbound ligand and to reduce non-specific binding. Binding reactions were assembled by combining kinases, liganded affinity beads, and test compounds in 1× binding buffer (20% SeaBlock, 0.17×PBS, 0.05% Tween 20, 6 mM DTT).
(§2) Test compounds were prepared as 111X stocks in 100% DMSO. Kds were determined using an 11-point 3-fold compound dilution series with three DMSO control points. All compounds for Kd measurements are distributed by acoustic transfer (non-contact dispensing) in 100% DMSO. The compounds were then diluted directly into the assays such that the final concentration of DMSO was 0.9%. All reactions performed in polypropylene 384-well plate. Each was a final volume of 0.02 ml. The assay plates were incubated at room temperature with shaking for 1 hour and the affinity beads were washed with wash buffer (1×PBS, 0.05% Tween 20). The beads were then re-suspended in elution buffer (1×PBS, 0.05% Tween 20, 0.5 μM non-biotinylated affinity ligand) and incubated at room temperature with shaking for 30 minutes. The kinase concentration in the eluates was measured by qPCR.
(§3) Binding constants were calculated with a standard dose-response curve using the Hill equation: […]
(§4) The Hill Slope was set to −1. Curves were fitted using a non-linear least square fit with the Levenberg-Marquardt algorithm.

A further assay addresses T2, FGFR3 (Homo sapiens, UniProt P22607).
T2 construct: made in house; host or cells: E. coli derived from BL21, infected with T7 phage
Particulars: read-out: FGFR3 (Kd nM). How it is done:
as §1, §2, §3, §4

The target in the next assay is T3, FGFR1 (Homo sapiens, UniProt P11362).
T3 construct: made in house; host or cells: E. coli derived from BL21, infected with T7 phage
The conditions noted are these: read-out: FGFR1 (Kd nM). The method, then:
(§5) Kinase-tagged T7 phage strains were prepared in an E. coli host derived from the BL21 strain. E. coli were grown to log-phase and infected with T7 phage and incubated with shaking at 32° C. until lysis. The lysates were centrifuged and filtered to remove cell debris. […] The liganded beads were blocked with excess biotin and washed with blocking buffer SeaBlock (Pierce), 1% BSA, 0.05% Tween 20, 1 mM DTT to remove unbound ligand and to reduce non-specific binding.
(§6) Kds were determined using an 11-point 3-fold compound dilution series with three DMSO control points. […] The compounds were then diluted directly into the assays such that the final concentration of DMSO was 0.9%. All reactions performed in polypropylene 384-well plate. Each was a final volume of 0.02 ml. […] The kinase concentration in the eluates was measured by qPCR.
as §3, §4

The target of the next assay is T4, FGFR2 (Homo sapiens, UniProt P21802).
T4 construct: made in house; host or cells: E. coli derived from BL21, infected with T7 phage
The conditions noted are these: read-out: FGFR2 (Kd nM). The method, then:
as §5, §6, §3, §4

T4 sequence (P21802 22-821): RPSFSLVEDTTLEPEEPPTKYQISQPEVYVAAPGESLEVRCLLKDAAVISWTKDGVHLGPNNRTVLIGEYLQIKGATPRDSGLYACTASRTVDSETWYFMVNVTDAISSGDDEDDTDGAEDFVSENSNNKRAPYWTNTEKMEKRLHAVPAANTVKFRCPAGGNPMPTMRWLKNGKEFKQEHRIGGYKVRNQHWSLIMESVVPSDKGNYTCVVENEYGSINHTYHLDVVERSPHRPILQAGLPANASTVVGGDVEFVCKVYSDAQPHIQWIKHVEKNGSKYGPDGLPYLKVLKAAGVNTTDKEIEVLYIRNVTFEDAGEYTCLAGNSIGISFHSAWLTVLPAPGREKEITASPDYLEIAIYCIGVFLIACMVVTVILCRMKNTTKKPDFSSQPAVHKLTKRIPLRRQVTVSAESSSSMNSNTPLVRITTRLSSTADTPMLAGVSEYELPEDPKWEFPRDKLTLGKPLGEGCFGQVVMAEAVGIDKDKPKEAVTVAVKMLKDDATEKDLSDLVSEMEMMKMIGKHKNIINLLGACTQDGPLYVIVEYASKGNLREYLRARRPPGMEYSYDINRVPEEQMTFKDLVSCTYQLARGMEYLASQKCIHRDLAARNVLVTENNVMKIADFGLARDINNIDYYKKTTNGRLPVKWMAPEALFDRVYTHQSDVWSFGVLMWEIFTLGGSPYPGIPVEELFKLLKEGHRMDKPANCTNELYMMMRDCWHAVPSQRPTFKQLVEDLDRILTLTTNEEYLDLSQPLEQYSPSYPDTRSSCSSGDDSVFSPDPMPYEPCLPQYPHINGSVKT
T3 sequence (P11362 22-822): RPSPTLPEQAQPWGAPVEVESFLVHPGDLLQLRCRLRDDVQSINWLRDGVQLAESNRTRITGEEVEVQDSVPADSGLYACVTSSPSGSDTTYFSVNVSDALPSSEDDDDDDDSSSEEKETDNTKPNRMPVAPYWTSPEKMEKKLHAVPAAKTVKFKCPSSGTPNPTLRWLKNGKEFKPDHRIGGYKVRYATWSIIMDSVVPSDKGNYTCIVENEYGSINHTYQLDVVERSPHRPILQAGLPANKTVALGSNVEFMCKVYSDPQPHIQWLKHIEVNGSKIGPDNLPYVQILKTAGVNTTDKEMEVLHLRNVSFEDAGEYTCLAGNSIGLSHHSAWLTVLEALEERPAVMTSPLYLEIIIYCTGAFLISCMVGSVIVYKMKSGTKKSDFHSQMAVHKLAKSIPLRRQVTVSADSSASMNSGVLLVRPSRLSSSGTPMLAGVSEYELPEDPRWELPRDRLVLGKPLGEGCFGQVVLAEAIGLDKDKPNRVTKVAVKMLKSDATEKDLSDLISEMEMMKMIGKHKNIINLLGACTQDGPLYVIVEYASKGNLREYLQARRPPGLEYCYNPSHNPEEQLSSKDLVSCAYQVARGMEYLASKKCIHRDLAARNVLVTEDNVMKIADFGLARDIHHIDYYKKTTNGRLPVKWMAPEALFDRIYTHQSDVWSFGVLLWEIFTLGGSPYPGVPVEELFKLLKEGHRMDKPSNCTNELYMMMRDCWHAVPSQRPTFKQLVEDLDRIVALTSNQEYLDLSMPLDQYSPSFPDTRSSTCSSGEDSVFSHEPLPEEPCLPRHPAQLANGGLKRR
T2 sequence (P22607 23-806): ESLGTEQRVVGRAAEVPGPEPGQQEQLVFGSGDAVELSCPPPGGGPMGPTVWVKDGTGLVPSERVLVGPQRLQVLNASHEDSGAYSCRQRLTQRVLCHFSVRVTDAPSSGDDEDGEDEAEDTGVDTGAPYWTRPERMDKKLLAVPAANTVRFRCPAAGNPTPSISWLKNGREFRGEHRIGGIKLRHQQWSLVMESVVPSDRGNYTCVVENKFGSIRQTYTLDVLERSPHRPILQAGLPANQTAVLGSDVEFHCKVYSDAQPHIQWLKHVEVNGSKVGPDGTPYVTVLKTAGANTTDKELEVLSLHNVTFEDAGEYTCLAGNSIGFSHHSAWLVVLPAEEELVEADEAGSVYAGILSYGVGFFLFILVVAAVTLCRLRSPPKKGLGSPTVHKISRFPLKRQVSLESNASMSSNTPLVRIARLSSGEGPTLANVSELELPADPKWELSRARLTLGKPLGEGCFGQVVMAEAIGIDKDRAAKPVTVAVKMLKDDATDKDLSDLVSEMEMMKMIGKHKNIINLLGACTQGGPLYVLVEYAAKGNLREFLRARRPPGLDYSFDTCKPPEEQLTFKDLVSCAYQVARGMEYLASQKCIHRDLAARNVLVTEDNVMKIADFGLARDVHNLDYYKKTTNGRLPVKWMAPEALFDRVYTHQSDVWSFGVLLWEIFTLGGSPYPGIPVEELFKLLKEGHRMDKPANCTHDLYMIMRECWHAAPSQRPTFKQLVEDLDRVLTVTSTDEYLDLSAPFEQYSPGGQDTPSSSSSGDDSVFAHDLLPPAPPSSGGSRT
T1 sequence (P22455 22-802): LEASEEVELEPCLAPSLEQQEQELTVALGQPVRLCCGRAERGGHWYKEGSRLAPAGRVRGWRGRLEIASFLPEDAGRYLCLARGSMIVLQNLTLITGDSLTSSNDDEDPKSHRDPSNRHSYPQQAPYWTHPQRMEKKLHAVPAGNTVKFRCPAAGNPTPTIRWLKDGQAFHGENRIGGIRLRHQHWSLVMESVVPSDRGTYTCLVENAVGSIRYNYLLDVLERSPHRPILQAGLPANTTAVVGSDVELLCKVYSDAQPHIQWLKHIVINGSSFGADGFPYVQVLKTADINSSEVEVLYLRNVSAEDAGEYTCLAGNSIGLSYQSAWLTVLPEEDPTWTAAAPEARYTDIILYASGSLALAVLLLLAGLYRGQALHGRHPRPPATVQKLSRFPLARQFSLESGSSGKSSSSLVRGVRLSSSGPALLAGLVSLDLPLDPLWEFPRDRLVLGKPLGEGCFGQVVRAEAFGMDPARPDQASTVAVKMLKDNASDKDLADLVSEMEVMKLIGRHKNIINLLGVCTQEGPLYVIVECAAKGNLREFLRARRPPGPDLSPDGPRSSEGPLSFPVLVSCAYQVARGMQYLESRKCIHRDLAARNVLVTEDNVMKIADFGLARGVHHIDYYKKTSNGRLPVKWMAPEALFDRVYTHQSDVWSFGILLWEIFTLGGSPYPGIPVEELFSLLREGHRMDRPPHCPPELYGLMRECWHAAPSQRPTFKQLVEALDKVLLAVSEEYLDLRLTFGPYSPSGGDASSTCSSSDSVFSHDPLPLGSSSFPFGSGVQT

For orientation: Kd means the concentration at which binding is half-saturated. Take `Cc1cnnc(C)c1[C@@H](C)Oc1ccc2[nH]nc(-c3cc(C#N)cc(OC(F)(F)F)c3)c2c1` [Example 61, 3-[5-[(1R)-1-(3,5-dimethylpyridazin-4-yl)ethoxy]-1H-indazol-3-yl]-5-(trifluoromethoxy)-benzonitrile]: the Kd is 250 to 1000 nM on FGFR4, above 1000 nM on FGFR3, above 1000 nM at FGFR1 and above 1000 nM at FGFR2.

As for `Cc1cc2[nH]nc(-c3cnc(O[C@@H]4CCOC4)c(C#N)c3)c2cc1O[C@H](C)c1c(Cl)cncc1Cl` [Example 135, 5-(5-((R)-1-(3,5-dichloropyridin-4-yl)ethoxy)-6-methyl-1H-indazol-3-yl)-2-(((R)-tetrahydrofuran-3-yl)oxy)nicotinonitrile], the Kd on FGFR4, on FGFR3, at FGFR1 and on FGFR2 was 0.1 to 100 nM in each case.

On to `Cc1cc(-c2n[nH]c3ccc(O[C@H](C)c4c(C)cnnc4C)cc23)cc(C#N)c1OC1CCN(C2CCC2)CC1` [Example 120, (R)-2-((1-cyclobutylpiperidin-4-yl)oxy)-5-(5-(1-(3,5-dimethylpyridazin-4-yl)ethoxy)-1H-indazol-3-yl)-3-methylbenzonitrile], for which the Kd at FGFR4, at FGFR3, on FGFR1 and on FGFR2 was 0.1 to 100 nM each time.

Turning to `Cc1cnnc(C)c1[C@@H](C)Oc1ccc2[nH]nc(-c3cc(C#N)cc(OC4CCOC4)c3)c2c1` (stereo partly drawn) [Example 67, 3-[5-[(1R)-1-(3,5-dimethylpyridazin-4-yl)ethoxy]-1H-indazol-3-yl]-5-tetrahydrofuran-3-yloxy-benzonitrile], the Kd at FGFR4 lay within 0.1 to 100 nM; on FGFR3, 100 to 250 nM; at FGFR1, 100 to 250 nM; on FGFR2 it was 250 to 1000 nM.

As to `Cc1cc(-c2n[nH]c3ccc(O[C@@H](C)c4c(C)cnnc4C)cc23)cc(C#N)n1` [Example 70, 4-[5-[(1S)-1-(3,5-Dimethylpyridazin-4-yl)ethoxy]-1H-indazol-3-yl]-6-methyl-pyridine-2-carbonitrile], the Kd at FGFR4, on FGFR3, on FGFR1 and at FGFR2 was above 1000 nM each time.

Consider `C[C@@H](Oc1ccc2[nH]nc(-c3cc(C#N)cc(C4CC4)c3)c2c1)c1c(Cl)cncc1Cl` [Example 109, (R)-3-cyclopropyl-5-(5-(1-(3,5-dichloropyridin-4-yl)ethoxy)-1H-indazol-3-yl)benzonitrile], for which the Kd was 0.1 to 100 nM on FGFR4, 250 to 1000 nM at FGFR3, above 1000 nM at FGFR1 and above 1000 nM at FGFR2.

Regarding `COc1cc(OC(C)C)cc(-c2n[nH]c3ccc(O[C@H](C)c4c(C)cnnc4C)cc23)c1` [Example 60, 5-[(1R)-1-(3,5-dimethylpyridazin-4-yl)ethoxy]-3-(3-isopropoxy-5-methoxy-phenyl)-1H-indazole], the Kd at FGFR4, on FGFR3, on FGFR1 and on FGFR2 was above 1000 nM throughout.

As to `COc1c(C)cc(-c2n[nH]c3ccc(O[C@H](C)c4c(Cl)cncc4Cl)cc23)cc1C#N` [Example 108], the Kd at FGFR4 fell in the range of 0.1 to 100 nM; on FGFR3, 0.1 to 100 nM; at FGFR1, 250 to 1000 nM; at FGFR2, 250 to 1000 nM.

Regarding `Cc1cc(C(=O)N2CCOc3ncc(-c4n[nH]c5ccc(O[C@H](C)c6c(Cl)cncc6Cl)cc45)cc32)ccn1` [Example 23, [7-[5-[(1R)-1-(3,5-dichloro-4-pyridyl)ethoxy]-1H-indazol-3-yl]-2,3-dihydro-pyrido[2,3-b][1,4]oxazin-1-yl]-(2-methyl-4-pyridyl)methanone], the Kd at FGFR4 was 0.1 to 100 nM; at FGFR3 it was 250 to 1000 nM; at FGFR1, above 1000 nM; on FGFR2, above 1000 nM.

In the case of `Cc1cnnc(C)c1[C@@H](C)Oc1ccc2[nH]nc(-c3cc(C#N)cc(N4CCOCC4)c3)c2c1` [Example 64, 3-[5-[(1R)-1-(3,5-Dimethylpyridazin-4-yl)ethoxy]-1H-indazol-3-yl]-5-morpholino-benzonitrile], the Kd at FGFR4 was 100 to 250 nM; at FGFR3 it was above 1000 nM; at FGFR1, above 1000 nM; on FGFR2, above 1000 nM.
